For data set [1] the following is noted: 33° C.; cited from earlier work.
A short description of data set [2]: Centrifugation/ultrafiltration analysis of lutein and MDG in MDG batches (Example 60). Format: physicochemical. The note with it: centrifugation at 1,000×g, samples with NFDM. Here is the method: A study was conducted to further investigate the distribution of lutein and MDG within the nutritional composition. Samples included MDG/lutein/water; MDG/lutein/NFDM/water; MDG/lutein/WPC/water; and MDG/water.
The premixes were provided as follows: in samples that contained lutein, lutein was heated for 2 h at 50° C. with shaking. […] In samples that contained protein, non-fat dried milk was added to water (50-60° C.) with agitation and allowed to hydrate for approximately 10 min.
The samples were prepared as follows: for solution 1, water was heated to 50-60° C., an lutein in GMO-40 blend and turrax (30 sec 10000 rpm) was added; for solution 2, NFDM was placed in water solution heated to 50-60° C., and lutein was added in GMO-40 blend and turrax (30 sec 10000 rpm); for solution 3, water was heated to 50-60° C., and GMO-40 blend and turrax (30 sec 10000 rpm) was added. The solutions are listed in the table below as X.1, wherein 1 is the solution.
Samples were formulated as detailed above, and then characterized by ultrafiltration with various membranes, as well as ultracentrifuged at various times and speed (e.g., 100,000×g, 4,500×g, and 1,000×g). The details of the different centrifugation/filtration method are listed below. […]

A short description of data set [3]: Distribution of lutein and MDG over cream, aqueous and pellet layers after 100,000×g (Example 58). The note with it: 100,000×g for 1 hour. Type of data set: physicochemical. The method, then:
A study was conducted to investigate the distribution of lutein and MDG within the nutritional compositions. Sample were prepared using homogenization at 150/20 bar, and then centrifuged at 100,000×g for 1 hour. The different layers (e.g., cream, aqueous, and pellet) were then analyzed for the presence of lutein and MDG.

vitamin E: the “reported solubility limit in water” value in data set [1] was 20.9 mg/kg.
Turning to `CC1=C[C@H](O)CC(C)(C)[C@H]1/C=C/C(C)=C/C=C/C(C)=C/C=C/C=C(C)/C=C/C=C(C)/C=C/C1=C(C)C[C@@H](O)CC1(C)C` [lutein], the “lutein found in the aqueous phase” value in data set [2] is given as roughly 20%. For the same molecule, in data set [3], the “lutein contained in the pellet” value is “approximately 1%”. Besides, the “present in the aqueous phase following centrifugation” value in data set [3] (nutritional compositions comprising MDG, of the nutritional composition) is reported as “approximately 4 wt %”.

The values above are taken from patent US20160213041A1, “NUTRITIONAL COMPOSITION HAVING LIPOPHILIC COMPOUNDS WITH IMPROVED SOLUBILITY AND BIOAVAILABILITY” (ABBOTT LABORATORIES, priority 2013, published 2016).
